Experiments:
MIA PaCa-2 cells = assay: Seahorse XF Real-Time ATP Rate Assay (FIG. 8A); type: cell-based; conditions: 6 h romidepsin then 12 h washout with or without 2 nM DMPatA
Experimental: FIG. 8A compares quantification of ATP production rates. Seahorse XF Real-Time ATP Rate Assay was performed under control conditions or after treatment with the combination and single agents. Treatment was for a total of 18 h (i.e., 6-hour romidepsin followed by 12-hour washout with 2 nM DMPatA (combo) or without (Romi alone)). FIG. 8A left panel—ATP production rate from mitochondrial respiration (Mito-ATP); FIG. 8A right panel—ATP production rate from glycolysis (Glyco-ATP). At least two biological replicate experiments with n=3 technical replicates were performed. Statistical significance was determined by one-way ANOVA using Tukey multiple comparison's test in the Prism software. *p value<0.01.
Because reprograming/augmentation of cellular metabolism by c-MYC is known to support oncogenesis, the Seahorse XF analyzer was used to assess the impact of the treatments on c-MYC-driven metabolism including ATP production, glycolysis, and mitochondrial oxidative phosphorylation (OXPHOS). Extracellular acidification rates, also known as proton efflux rate (PER), were measured for glycolysis and mitochondrial oxygen consumption rates (OCR) for OXPHOS. […]
Oxygen consumption rates (OCR) and extracellular acidification rates (ECAR) were measured using the XF96 Extracellular Flux analyzer (Seahorse Bioscience). […]

MIA PaCa-2 and KLM cells = assay: RNA-seq gene expression analysis (FIG. 9A); type: cell-based
Experimental: Plots show a significant increase in the overall gene expression in the cells treated with the combination. Cells treated for a total of 18 h (i.e., 6-hour romidepsin followed by 12-hour incubation with 2 nM DMPatA (combo) or without (Romi alone)).
To gain further insight into the effects of the combination treatment gene expression was profiled in MIA PaCa-2 and KLM cells treated with vehicle, the single agents, or the combination for a total of 18 h (i.e., 6-hour romidepsin treatment followed by 12-hour washout with 2 nM DMPatA or without), probing whether alterations observed following combination treatment could be explained by changes in gene expression.
Total RNA was extracted using RNeasy mini kit (Qiagen) from cells collected after 18 hours (6 hours romidepsin (15 nM)+12 hours washout with or without DMPatA (2 nM)) incubation with or without drugs. RNA quantitation and quality were assessed by the Agilent Bioanalyzer 2100 at the Molecular Pathology Shared Resource of the Herbert Irving Comprehensive Cancer Center at Columbia University (mBank). RNA library preparation and sequencing was performed at Columbia University's Sulzberger Genome Center. Briefly, poly-A pull-down was used to enrich mRNAs from total RNA samples, followed by library construction using Illumina TruSeq chemistry. Libraries were then sequenced using Illumina NovaSeq 6000. For the DESeq2 (v 1.40.2) analysis the data were imported with tximport in DESeq2 and a dds object was generated. Variance stabilizing transformation was used on the object and the output was used for the heatmap and PCA plots. Abundance of transcripts was estimated by pseudoalignment using kallisto, and downstream analysis was performed using R (v4.3.1) and the indicated packages. […] Differentially expressed genes were determined using linear regression method (limma v3.56.2), and genes with |log 2FC|≥1 and adjusted p-value <0.05 were plotted accordingly on volcano plots and heatmap (ggplot2 v3.5.0 and ComplexHeatmap v2.16.0). […]

Q: What does the source list for `C/C=C1\NC(=O)[C@H]2CSSCC/C=C/[C@H](CC(=O)N[C@H](C(C)C)C(=O)N2)OC(=O)[C@H](C(C)C)NC1=O` [romidepsin]?
A: glycolytic ATP production (Glyco-ATP) (MIA PaCa-2 cells): reduced; mitochondrial ATP production (Mito-ATP) (MIA PaCa-2 cells): reduced; change in gene expression (MIA PaCa-2 and KLM cells; romidepsin 15 nM 6 h, with or without DMPatA 2 nM): only a modest increase in gene expression; number of differentially expressed genes (DEGs) (MIA PaCa-2 and KLM cells; total 18 h (6 h romidepsin 15 nM + 12 h with/without DMPatA 2 nM), |log2FC|≥1, adjusted p<0.05): 1551 DEGs
